{"source": "patent US20240261302A1", "about": "“METHODS OF TREATING NEURODEGENERATIVE DISEASES OR CONDITIONS” (FloraScience Inc., priority 2023, published 2024)", "key": {"[1]": {"assay": "Cell viability after RSL3 with/without FCCP (CyQUANT DNA-based assay, fluorescence microscopy), mt-GFP WT cells", "design": "species or system mouse", "conditions": "mouse, HT22 mt-GFP WT cells, FCCP treatment 40 hr, read-out: decrease in cell viability compared to the vehicle control"}, "[2]": {"assay": "Cell viability after RSL3 with/without FCCP (CyQUANT DNA-based assay, fluorescence microscopy), mt-GFP/mCherry-Parkin cells", "design": "species or system mouse", "conditions": "mouse, HT22 mt-GFP/mCherry-Parkin cells, FCCP treatment 40 hr, read-out: decrease in cell viability compared to the vehicle control"}, "[3]": {"tested_on": "HT22 mt-GFP/mCherry-Parkin cells", "assay": "Cell viability after RSL3 with/without FCCP (CyQUANT DNA-based assay, fluorescence microscopy), mt-GFP/mCherry-Parkin cells", "design": "species or system mouse", "conditions": "for protection against RSL3-induced cell death, no FCCP pretreatment: 16 hr; for protection against RSL3 after FCCP pretreatment (mitochondria-depleted cells): FCCP 5 μM 24 hr, then 16 hr"}, "HT22 cells [4]": {"tested_on": "HT22 cells", "assay": "Ferroptosis Assay (RSL3-induced cell death, MTT)", "assay_type": "cell-based, mouse", "description": "Ferroptosis Assay: HT22 cells were seeded at 3,000 cells/well in 96-well tissue culture plates in DMEM plus 10% FBS and 1% antibiotics. After 24 hr of plating, the cells were pretreated with different concentrations of test compounds or a vehicle control for 1 hr followed by coincubation with 50 nM RSL3 to induce the cell death cascade. After 16 hr of treatment, cell viability was measured by the MTT assay. Optical absorbance was measured at 570 nm on a SpectraMax M5 microplate reader. Samples were analyzed in eight to sixteen wells per independent experiment (n=8-16). Results were presented as the percentage of the controls with vehicle alone."}, "HT22 cells [5]": {"tested_on": "HT22 cells", "assay": "Cellular Lipid Peroxidation Measurement (C11-BODIPY)", "assay_type": "cell-based, mouse", "description": "Lipid Peroxidation MeasurementsHT22 cells were seeded onto 96-well black walled plates at a density of 3,000 cells/well in DMEM supplemented with 10% FBS and 1% antibiotics. After the desired treatments, cells were labeled with 2.5 μM C11-BODIPY 581/591 (oxidized form Ex/Em=488/520 nm) at 37° C. for 2 hr. Experiments were performed according to the manufacturer's instructions. Fluorescence was measured on a SpectraMax M5 microplate reader. Data were normalized for total protein/well. Each condition was analyzed in twelve wells per independent experiment (n=12). Results were presented as the percentage of the controls with vehicle alone. Results were verified by live-cell imaging under a fluorescence microscope."}, "HT22 cells [6]": {"tested_on": "HT22 cells", "assay": "Mitochondrial Membrane Potential Assay (JC-10) in HT22 cells", "assay_type": "cell-based, mouse", "conditions": "50 nM, 4 hr", "description": "Mitochondrial Membrane Potential Assay. Cells seeded at 5,000 cells/well onto 96-well black walled plates were treated with test compounds at the desired concentrations under the culture condition described above. The mitochondrial uncoupler FCCP at 2 μM was used as a reference control. After the desired treatments for 4 hr, the cells were subjected to a JC-10 mitochondrial membrane potential assay according to the manufacturer's instruction. Fluorescence intensities (Ex/Em=490/525 nm, and Ex/Em=540/590 nm) of each well were monitored on a SpectraMax M5 microplate reader. The ratio of fluorescence intensity (590/525 nm) was used to determine the mitochondrial membrane potential (ΔΨm). Decreasing ratios indicate mitochondrial membrane depolarization. Samples were analyzed in eight to sixteen wells per independent experiment (n=8-16). Results were verified by live-cell imaging under a fluorescence microscope."}, "HT22 cells [7]": {"tested_on": "HT22 cells", "assay": "MitoTracker Assay (mitochondrial mass)", "assay_type": "cell-based, mouse", "conditions": "50 nM, vs control cells", "description": "MitoTracker Assay. HT22 cells were seeded onto 96-well black walled plates at a density of 5,000 cells/well in DMEM supplemented with 10% FBS and 1% antibiotics. After the desired treatments, MitoTracker Orange CM−H2TMRos (Ex/Em=554/576 nm) and Hoechst 33342 (Ex/Em=360/460 nm) dyes were added to the cells and incubated under the same culture condition for 2 hr. Fluorescence was measured on a SpectraMax M5 microplate reader. Experiments were performed according to the manufacturer's instructions. Data were normalized for total protein/well. Each condition was analyzed in sixteen wells per independent experiment (n=16). Results were presented as the percentage of the controls with vehicle alone. Results were verified by live-cell imaging under a fluorescence microscope."}, "HT22 mt-GFP WT cells": {"tested_on": "HT22 mt-GFP WT cells", "assay": "Cell viability after RSL3 with/without FCCP (CyQUANT DNA-based assay, fluorescence microscopy), mt-GFP WT cells", "design": "species or system mouse"}, "[8]": {"assay": "Cell-free, liposome-based assay of lipid peroxidation (STY-BODIPY)", "assay_type": "biochemical", "conditions": "test compounds 10 μM", "description": "For the cell-free, liposome-based assay, STY-BODIPY (1.5 μM) and liposomes of egg-PC (1 mM) (Avanti Polar Lipids Inc, Cat #840051P, AL) in TBS (pH 7.4) were added to an opaque 96-well plate. This was followed by the addition of test compounds (10 μM). The plate was incubated for 30 min at 37° C. and then vigorously mixed for 5 min. The autoxidation was initiated by the addition of V-70 (0.5 mM) (Fujifilm Wako, Cat #001-70078, Japan), followed by additional mixing for 5 min. Data were acquired at Ex/Em=488/518 nm every 15 min at 37° C. on a SpectraMax M5 microplate reader. Data were transformed into [ox-STY-BODIPY] by taking the raw fluorescent values of the saturated curve of control DMSO and dividing them by the initial concentration of reduced STY-BODIPY ([…]). Samples were analyzed in quadruplicate in four independent experiments (n=4)."}, "HT22 cells [9]": {"tested_on": "HT22 cells", "assay": "Oxytosis Assay (glutamate-induced cell death, MTT)", "assay_type": "cell-based, mouse", "conditions": "5 mM, 16 hr, vs control group", "description": "Oxytosis Assay. HT22 cells were seeded at 3,000 cells/well in 96-well tissue culture plates in DMEM plus 10% FBS and 1% antibiotics. After 24 hr of plating, the cells were pretreated with different concentrations of the test compounds or a vehicle control for 1 hr followed by coincubation with 5 mM glutamate to initiate the cell death cascade. After 16 hr of treatment, cell viability was measured by the 3−(4,5-dimethylthiazol-2-yl)-2,5-diphenyltetrazolium bromide (MTT) assay. Optical absorbance was measured at 570 nm on a SpectraMax M5 microplate reader. Samples were analyzed in eight to sixteen wells per independent experiment (n=8-16). Results were presented as the percentage of the controls with vehicle alone."}, "HT22 cells [10]": {"tested_on": "HT22 cells", "assay": "Oxytosis/ferroptosis assay with erastin (Table 2)", "assay_type": "cell-based", "conditions": "Mus musculus, HT-22; erastin as inducer; method not given; read-out: Observed EC50 erastin"}}, "data": [{"smiles": "N#CC(C#N)=NNc1ccc(OC(F)(F)F)cc1", "note": "[FCCP, carbonyl cyanide-4-(trifluoromethoxy)phenylhydrazone, reference compound]", "values": [{"measurement": "cytotoxicity at 40 hr, 5 μM", "setting": "[1]", "result": "~40", "unit": "%"}, {"measurement": "cytotoxicity at 40 hr, 5 μM", "setting": "[2]", "result": "~40", "unit": "%"}]}, {"smiles": "COC1=C(OC)C(=O)C(CCCCCCCCCC[P+](c2ccccc2)(c2ccccc2)c2ccccc2)=C(C)C1=O", "note": "[MitoQ]", "values": [{"measurement": "protection against RSL3-induced cell death, no FCCP pretreatment", "setting": "[3]", "result": "effectively protected"}, {"measurement": "protection against RSL3 after FCCP pretreatment (mitochondria-depleted cells)", "setting": "[3]", "result": "showed no cytoprotection"}]}, {"smiles": "COC(=O)c1ccc([C@@H]2c3[nH]c4ccccc4c3C[C@@H](C(=O)OC)N2C(=O)CCl)cc1", "note": "[RSL3, reference compound]", "values": [{"measurement": "cell death by inducer alone", "setting": "HT22 cells [4]; 50 nM, 16 hr, vs control group", "result": "40-60%"}, {"measurement": "increase of cellular lipid peroxidation level", "setting": "HT22 cells [5]; 50 nM, 16 hr", "result": "approximately 30%"}, {"measurement": "effect on ΔΨm", "setting": "HT22 cells [6]", "result": "no impact"}, {"measurement": "decrease of MitoTracker intensity", "setting": "HT22 cells [7]", "result": 8.4, "unit": "%"}, {"measurement": "cell viability in FCCP pretreated cells", "setting": "HT22 mt-GFP WT cells", "result": "10-15%"}, {"measurement": "cell viability in FCCP pretreated cells", "setting": "[3]", "result": "10-15%"}]}, {"smiles": "CCOC(=O)c1ccc(NC2CCCCC2)c(N)c1", "note": "[ferrostatin]", "values": [{"measurement": "RSL3-induced cellular lipid peroxidation", "setting": "HT22 cells [5]; 50 nM RSL3, 16 hr, p<0.0001", "result": "effectively suppressed"}, {"measurement": "basal cellular lipid peroxidation, compound alone", "setting": "HT22 cells [5]; CBN 5 μM, ferrostatin 10 μM, 16 hr", "result": "neither CBN (5 μM) nor ferrostatin (10 μM) alone changed basal levels of lipid peroxidation"}, {"measurement": "inhibition of lipid peroxidation, cell-free", "setting": "[8]", "result": "showed a potent effect against lipid peroxidation"}, {"measurement": "protection against RSL3-induced cell death, no FCCP pretreatment", "setting": "[3]", "result": "effectively protected"}, {"measurement": "protection against RSL3 after FCCP pretreatment (mitochondria-depleted cells)", "setting": "[3]", "result": "rescued"}]}, {"smiles": "N[C@@H](CCC(=O)O)C(=O)O", "note": "[glutamate, reference compound]", "values": [{"measurement": "cell death by inducer alone", "setting": "HT22 cells [9]", "result": "40-60%"}]}, {"smiles": "CCCCCc1cc(O)c2c(c1)O[C@]1(C)CC[C@@H](C(C)C)[C@H]2C1", "note": "[iso-HHC, (2α,5α,6α)-(−)-3,4,5,6-tetrahydro-2-methyl-5-(1-methylethyl)-9-pentyl-2,6-methano-2H-1-benzoxocin-7-ol]", "values": [{"measurement": "EC50", "setting": "HT22 cells [10]", "result": 2400, "unit": "nM"}, {"measurement": "EC50", "setting": "HT22 cells [4]; Mus musculus, HT-22, HT22 cells, 1 hr pretreatment, 50 nM RSL3, 16 hr, MTT, read-out: Observed EC50 RSL3", "result": 800, "unit": "nM"}]}]}
